This is an account of results in patent publication US8765773B2, “Substituted hydroxamic acids and uses thereof” (Millennium Pharmaceuticals, Inc., priority 2010, dated 2014).

Structures are written as SMILES.

The assay deals with T1, purified human HDAC6 (Homo sapiens, UniProt Q9UBN7).
T1 construct: purchased BPS Bioscience 5006
T1 sequence (Q9UBN7 1-1215): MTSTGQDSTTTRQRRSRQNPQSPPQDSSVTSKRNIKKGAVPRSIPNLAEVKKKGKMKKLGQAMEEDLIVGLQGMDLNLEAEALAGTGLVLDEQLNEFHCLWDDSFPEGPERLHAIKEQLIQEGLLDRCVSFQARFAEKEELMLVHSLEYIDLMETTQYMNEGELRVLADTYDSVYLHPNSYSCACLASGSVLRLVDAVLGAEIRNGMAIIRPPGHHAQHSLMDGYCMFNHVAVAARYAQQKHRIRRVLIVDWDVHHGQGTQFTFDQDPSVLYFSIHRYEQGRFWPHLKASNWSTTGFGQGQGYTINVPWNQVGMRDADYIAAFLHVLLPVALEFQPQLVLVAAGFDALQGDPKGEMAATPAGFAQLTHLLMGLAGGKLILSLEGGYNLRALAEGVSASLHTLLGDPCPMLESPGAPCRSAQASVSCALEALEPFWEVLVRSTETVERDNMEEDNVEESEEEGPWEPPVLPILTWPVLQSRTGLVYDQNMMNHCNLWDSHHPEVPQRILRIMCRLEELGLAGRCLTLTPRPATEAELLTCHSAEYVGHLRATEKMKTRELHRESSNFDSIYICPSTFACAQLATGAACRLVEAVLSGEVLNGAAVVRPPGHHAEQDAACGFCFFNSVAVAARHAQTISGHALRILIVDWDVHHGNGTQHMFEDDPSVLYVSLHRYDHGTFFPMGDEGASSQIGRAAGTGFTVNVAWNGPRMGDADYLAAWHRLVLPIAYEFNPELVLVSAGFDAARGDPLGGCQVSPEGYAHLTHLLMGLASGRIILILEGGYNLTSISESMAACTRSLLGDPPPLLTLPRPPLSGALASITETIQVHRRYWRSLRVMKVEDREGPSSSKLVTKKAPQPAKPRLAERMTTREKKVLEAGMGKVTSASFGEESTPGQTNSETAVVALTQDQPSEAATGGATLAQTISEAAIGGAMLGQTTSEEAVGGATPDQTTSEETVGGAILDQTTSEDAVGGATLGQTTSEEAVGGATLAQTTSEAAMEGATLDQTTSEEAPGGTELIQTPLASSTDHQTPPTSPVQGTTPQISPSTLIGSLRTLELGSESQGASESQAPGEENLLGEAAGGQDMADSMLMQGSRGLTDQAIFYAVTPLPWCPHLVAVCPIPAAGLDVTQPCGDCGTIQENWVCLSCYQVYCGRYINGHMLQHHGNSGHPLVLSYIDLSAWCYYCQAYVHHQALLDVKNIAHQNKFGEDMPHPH
Description: HDAC6 Enzyme Assay. The assay is classed as biochemical. To be noted: compound concentration 0.37 μM, read-out: Percent Inhibition. In short, it runs like this: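 Purified human HDAC6 incubated 1 h at 30° C with Ac-Arg-Gly-Lys(Ac)-AMC peptide plus compound or DMSO; stopped with trichostatin A. Deacetylated product trypsin-digested, released AMC read by fluorescence (Ex 340/Em 460 nm). Percent inhibition at one concentration or IC50 from curves relative to DMSO controls.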
In the case of `CNCc1cn(Cc2ccccc2)c(=O)c2cc(C(=O)NO)ccc12` [Compound I-418, 2-benzyl-N-hydroxy-4-[(methylamino)methyl]-1-oxo-1,2-dihydroisoquinoline-7-carboxamide], the inhibition at 0.37 µM stood at 29.5%.
The result for `CN(C)Cc1cn(Cc2ccccc2)c(=O)c2cc(C(=O)NO)ccc12` [Compound I-419, 2-benzyl-4-[(dimethylamino)methyl]-N-hydroxy-1-oxo-1,2-dihydroisoquinoline-7-carboxamide] reads 23.2%.
The result for `O=C(NO)c1ccc2c(=O)[nH]c(C3CCCC3)nc2c1` [Compound I-420, 2-cyclopentyl-N-hydroxy-4-oxo-3,4-dihydroquinazoline-7-carboxamide] reads 85.3%.
